Source: patent publication US8785499B2 (priority 2009, dated 2014)

Columns and labels:
[1] = biological target: baNadD (Bacillus anthracis, UniProt C3L5T6); assay: biochemical; type: biochemical; settings: for inhibition at 50 µM: read-out: INHIBITION (%) B. anthracis; for IC50: IC50 baNadD
[2] = biological target: ecNadD (Escherichia coli (strain K12), UniProt P0A752); assay: biochemical; type: biochemical; settings: for inhibition at 100 µM: read-out: INHIBITION (%) E. coli; for IC50: IC50 ecNadD

Sequence of baNadD (C3L5T6 whole entry, looked up): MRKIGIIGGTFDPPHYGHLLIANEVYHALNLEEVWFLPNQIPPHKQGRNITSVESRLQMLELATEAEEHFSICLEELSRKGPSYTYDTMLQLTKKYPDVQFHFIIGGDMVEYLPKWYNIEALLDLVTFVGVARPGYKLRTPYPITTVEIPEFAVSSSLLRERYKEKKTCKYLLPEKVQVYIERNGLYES

SMILES | inhibition at 50 µM [1] [%] | inhibition at 100 µM [2] [%] | IC50 [1] [µM] | IC50 [2] [µM] | […]. anthracis [1] [%] | […]. coli [2] [%]
O=C1Nc2ccccc2/C1=C/NCc1ccccc1 [15_16] | 6 | 11 | – | – | – | –
O=C1Nc2ccccc2/C1=C/Nc1ccccc1F [15_17] | 22 | 11 | – | – | – | –
CSc1cccc(N/C=C2\C(=O)Nc3ccccc32)c1 [15_18] | 24 | 11 | – | – | – | –
Cc1ccc(N/C=C2\C(=O)Nc3ccccc32)c(Cl)c1 [15_19] | 14 | 11 | – | – | – | –
Cc1cccc(N/C=C2\C(=O)Nc3ccccc32)n1 [15_20] | 8 | 11 | – | – | – | –
Cc1cc(C)c(N/C=C2\C(=O)Nc3ccccc32)c(C)c1 [15_21] | 30 | 10 | – | – | – | –
O=C1Nc2ccccc2/C1=C/Nc1ccc(F)cc1F [15_22] | 28 | 10 | – | – | – | –
Cc1cc(C)cc(N/C=C2\C(=O)Nc3ccccc32)c1 [15_23] | 32 | 10 | – | – | – | –
CCc1ccc(N/C=C2\C(=O)Nc3ccccc32)cc1 [15_24] | 17 | 9 | – | – | – | –
COc1ccc(N/C=C2\C(=O)Nc3ccccc32)cc1 [15_25] | 16 | 9 | – | – | – | –
O=C1Nc2ccccc2/C1=C/Nc1ccccc1Br [15_26] | 8 | 8 | – | – | – | –
CCc1ccccc1N/C=C1\C(=O)Nc2ccccc21 [15_27] | 42 | 8 | > 200 | > 200 | – | –
Cc1cccc(N/C=C2\C(=O)Nc3ccccc32)c1 [15_28] | 24 | 8 | > 200 | > 200 | – | –
Cc1ccc(N/C=C2\C(=O)Nc3ccccc32)cc1 [15_29] | 38 | 7 | – | – | – | –
CC(C)c1ccc(N/C=C2\C(=O)Nc3ccccc32)cc1 [15_30] | 42 | 7 | – | – | – | –
Cc1ccccc1N/C=C1\C(=O)Nc2ccccc21 [15_31] | 27 | 7 | 112 | 118 | – | –
O=C1Nc2ccccc2/C1=C/NCCc1ccccc1 [15_32] | 4 | 7 | – | – | – | –
O=C1Nc2ccccc2/C1=C/NC1CCCCC1 [15_33] | 15 | 6 | – | – | – | –
CC(C)N/C=C1\C(=O)Nc2ccccc21 [15_34] | 9 | 4 | – | – | – | –

SMILES | inhibition at 50 µM [1] [%] | inhibition at 100 µM [2] [%] | IC50 [1] [µM] | IC50 [2] [µM] | […]. anthracis [1] [%] | […]. coli [2] [%]
CC(=O)c1cccc(N/C=C2\C(=O)Nc3ccccc32)c1 [15_35] | 19 | 4 | – | – | – | –
Cc1cccc(C)c1N/C=C1\C(=O)Nc2ccccc21 [15_36] | 11 | 4 | – | – | – | –
COc1cccc(N/C=C2\C(=O)Nc3ccccc32)c1 [15_37] | 1 | 4 | – | – | – | –
Cc1ccc(CN/C=C2\C(=O)Nc3ccccc32)cc1 [15_38] | 17 | 3 | – | – | – | –
CC(N/C=C1\C(=O)Nc2ccccc21)c1ccccc1 (stereo not shown) [15_39] | 18 | 3 | – | – | – | –
O=C1Nc2ccccc2/C1=C/Nc1ccccc1C(=O)O [15_40] | 0 | 1 | – | – | – | –
CCc1cccc(C)c1N/C=C1\C(=O)Nc2ccccc21 [15_41] | 13 | 0 | – | – | – | –
CC(=O)c1ccc(N/C=C2/C(=O)Nc3ccccc32)cc1 [15_42] | 11 | 0 | – | – | – | –
O=C(CCC(=O)Nc1ccc(I)cc1)N/N=C/c1c2ccccc2cc2ccccc12 [compound 001] | 88 | 79 | 21 | 15 | – | –
S=C(N/N=C/c1ccccc1Cl)Nc1cc(Cl)ccc1Cl [compound 002] | – | – | – | – | 85 | 76
Nc1c(C(=O)Nc2cccc(Cl)c2Cl)sc2nc(-c3cccs3)ccc12 [compound 003] | 40 | 73 | – | – | – | –
O=C(O)c1cc([N+](=O)[O-])ccc1Sc1cccs1 [compound 005] | – | – | – | – | 44 | 71
Brc1cnc2nc(/C=C/c3ccccc3)[nH]c2c1 [compound 006] | – | – | – | – | 34 | 62
O=C1NC(=O)/C(=C\c2ccc(C(=O)O)cc2)N1 [compound 007] | – | – | – | – | 34 | 54
CC(=O)Nc1ccc(S(=O)(=O)Nc2ccc(Cl)cc2Cl)cc1 [compound 008] | – | – | – | – | 0 | 47
COC(=O)c1sc(NC(=O)/C=C/C(=O)O)nc1C [compound 009] | – | – | – | – | 0 | 45
NS(=O)(=O)c1ccc(Nc2nc(-c3ccc(O)c(O)c3)cs2)cc1 [compound 010] | – | – | – | – | 89 | 32
O=C(Nc1ncccn1)c1sc2ccccc2c1Cl [compound 011] | – | – | – | – | 0 | 31
